Entries after “also recorded” stand apart in the source; their conditions may differ. Where two headings read alike, the source gives them in different places.
Assays:
AUD = settings: early uncontrolled studies; cited from earlier work
[1] = cited from earlier work
[2] = cited from earlier work; remark: listed apart in the source
[3] = system: patients diagnosed with AUD; assay: Depression and anxiety levels, FIG. 3 and FIG. 4; type: in vivo, human; settings: patients remaining at 9 months; 100% at screening
Protocol: Prior to undergoing the disclosed methods, specifically during the screening session, 12 patients were assessed for levels of depression. […] Directly after going through the detoxification process (noted as “baseline” in FIG. 3), one patient had mild depression, two had moderate depression, zero had moderately severe depression, and two had severe depression (out of 11 patients remaining in the study). The patients were then reassessed at 3, 6, and 9 months post-baseline (i.e., after completing a detoxification course, and prior to beginning the MDMA-assisted therapy regimen), wherein it was discovered that, at 3 months, two had mild depression, one had moderate depression, three had moderately severe depression, and one had severe depression (out of 9 patients remaining in the study); at 6 months, no patients suffered from mild or moderate depression, two had moderate severe depression, and one had severe depression (out of 6 patients remaining in the study); finally, at 9 months, one patient had mild depression, one had moderate depression, and one had moderate severe depression, with none having severe depression.
Prior to undergoing the disclosed methods, specifically during the screening session, 12 patients were assessed for levels of anxiety. […]

patients with AUD [4] = assay: Physiological measures, SUDS and Drug Effects during MDMA sessions (Example 8); type: in vivo, human
Protocol: (§1) Dosing with MDMA occurred twice during the eight-week course on weeks 3 and 6.
Physiological and tolerability effects during MDMA sessions: In total, 26 drug-assisted psychotherapy sessions with MDMA were administered during the trial. Temperature, blood pressure and heart rate were measured at t=0, before taking MDMA, then half-hourly up to t=2 hours, then hourly thereafter for a minimum of 6-hours from the time of dosing (see FIG. 7).
Subjective Units of Distress (SUDS) and Participant report of Drug Effects were also measured, hourly, throughout the MDMA sessions (see FIG. 7). […] Participants gave their own subjective score (0-10) of whether they felt Drug Effects, and the therapists also recorded their own objective score of how “altered” the participant appeared. There was no significant difference between Observers' and Participants' Drug Effects scores. Drug Effects rose expectedly over the first two hours, with a notable further increase after the booster dose was given at t=2 hours, and a subsequent plateau then decline over the following six hours.

patients with AUD [5] = assay: PHQ-9, GAD-7, psychosocial functioning and quality of life measures (Example 8); type: in vivo, human
patients with AUD [6] = assay: Suicidality, C-SSRS (Example 8); type: in vivo, human; settings: during the course of the study
Description: (§2) Following the end of the eight-week therapeutic course, participants carried out additional follow-up questionnaires.
Suicidality. Participants underwent the C-SSRS at screening, baseline, throughout the eight-week therapy course, in the week after each MDMA session and at the three-, six-, and nine-month follow-up visits.

patients with AUD [7] = assay: Drinking behavior (TLFB, units of alcohol per week), open-label MDMA-assisted therapy study in AUD post-detox (Example 8); type: in vivo, human
CYP3A4 = CYP3A4 (Homo sapiens, UniProt P08684); settings: single dose of MDMA of 1.5 mg/kg; cited from earlier work
Chain of CYP3A4 (P08684 whole entry): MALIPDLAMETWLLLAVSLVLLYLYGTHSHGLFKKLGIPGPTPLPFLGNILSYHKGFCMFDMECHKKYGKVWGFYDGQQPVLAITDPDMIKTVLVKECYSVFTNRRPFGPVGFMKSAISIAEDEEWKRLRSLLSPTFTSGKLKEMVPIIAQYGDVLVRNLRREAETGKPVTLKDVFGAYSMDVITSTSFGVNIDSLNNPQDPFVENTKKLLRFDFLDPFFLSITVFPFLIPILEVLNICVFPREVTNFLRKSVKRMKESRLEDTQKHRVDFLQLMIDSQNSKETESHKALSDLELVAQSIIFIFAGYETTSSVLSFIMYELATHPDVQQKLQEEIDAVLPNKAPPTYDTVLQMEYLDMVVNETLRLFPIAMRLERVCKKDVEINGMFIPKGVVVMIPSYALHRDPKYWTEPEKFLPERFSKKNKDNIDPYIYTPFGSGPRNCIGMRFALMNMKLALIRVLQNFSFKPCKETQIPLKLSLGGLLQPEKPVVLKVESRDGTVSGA

individuals with PTSD = settings: cited from earlier work
patients with AUD [8] = assay: Adverse events and tolerability (Example 8); type: in vivo, human
Protocol: This Example details an open-label, within-subjects, safety and tolerability feasibility study that was conducted in 14 patients aged 18-65 years old diagnosed with AUD who had recently undergone detoxification, and received MDMA-assisted therapy.
as §1

[9] = doses of 100-125 mg; cited from earlier work
patients with AUD [10] = assay: Profile Of Mood States (POMS), seven-day follow-up after MDMA sessions (Example 8); type: in vivo, human; settings: daily for seven days after each MDMA session; 14 participants, 26 sessions
Description: as §2
Seven-day follow-up after MDMA sessions: Considerable medical literature and the popular press report the anecdotal observation of ecstasy users experiencing an acute ‘come-down’ effect and a drop in mood in the days after using the drug recreationally. In order to measure this prospectively with clinical MDMA, we measured participants' mood states by daily Profile Of Mood States (POMS) measurements for seven days after each MDMA session (see FIG. 9). Positive scores represent depressed affect, zero represents no change in mood/affect and results below zero represent a positively felt mood.

[11] = cited from earlier work; remark: listed apart in the source
[12] = cited from earlier work; remark: listed apart in the source
alcohol relapse = settings: only in conjunction with psychosocial interventions; cited from earlier work
[13] = nine-month follow-up end point, of 14 participants

CCN(CC)C(=O)[C@@H]1C=C2c3cccc4[nH]cc(c34)C[C@H]2N(C)C1 [LSD]
abstinence rates (AUD): 30-50%

CNC(C)Cc1ccc2c(c1)OCO2 (stereo not shown) [MDMA base]
solubility in water [1]: insoluble in water

CNC(C)Cc1ccc2c(c1)OCO2 (stereo not shown) [MDMA, 1-(1,3-benzodioxol-5-yl)-N-methylpropan-2-amine]
time of peak subjective effects ([2]; 100 mg MDMA, healthy volunteers, brain imaging studies): 100 min | duration of subjective effects ([2]; 100 mg MDMA, healthy volunteers): approximately 4.5 hours | time of peak subjective effects ([2]; Harris 2002): 90 to 120 min | time to return to baseline values ([2]; Harris 2002): 5 to 6 h | time to subjective effects ([2]; Harris 2002): approximately 45 mins | duration of effects ([2]; one dose): 4 to 5 h | onset of action ([2]; patients with PTSD, after the initial dose): 45 to 75 min | time of peak drug effects ([2]; patients with PTSD): 2 to 5 h | duration of effects ([2]; with the booster dose): 5 to 6 h | patients found to have anxiety [3]: about 67% | patients found to have depression [3]: 50% | temperature, blood pressure and heart rate during MDMA sessions (patients with AUD [4]; 26 sessions, except for one participant): remained within normal limits | Drug Effects scores (0-10) (patients with AUD [4]; by the end of the MDMA session day): all drug effects had returned to baseline | Subjective Units of Distress (SUDS) (patients with AUD [4]; hourly during the MDMA session): subsequently reduced during the course of the session | rise in blood pressure, temperature and heart rate over the course of the MDMA session (patients with AUD [4]; in vivo): mild, transient rise | neurocognitive impairments (patients with AUD [4]; weeks and months following participation): No participants reported any significant neurocognitive impairments | PHQ-9 and GAD-7 scores (patients with AUD [5]; after screening and baseline time points): reduction in both anxiety and depression | psychosocial functioning (patients with AUD [5]; in vivo): improved across the cohort | quality of sleep, quality of life, compassion and empathy scales (patients with AUD [5]; in vivo): demonstrating benefits and improvements | C-SSRS suicidal ideation, intent or plans or self-harm behavior (patients with AUD [6]): No participants reported current suicidal ideation, intent or plans or self-harm behavior | decrease in alcohol consumption (patients with AUD [7]; 3 months post-detox vs pre-detox): 87.1% | decrease in alcohol consumption (patients with AUD [7]; 6 months post-detox vs pre-detox): 71% | units of alcohol per week (patients with AUD [7]; 6 months post-detox, 130.6 units per week pre-detox): 38.0 units of alcohol per week | decrease in alcohol consumption (patients with AUD [7]; 9 months post-detox vs pre-detox): 85.7% | average units of alcohol consumption per week (patients with AUD [7]; 9 months post-detox, 130.6 units per week pre-detox): 18.7 units/week | outcomes of other comorbid addictions (SUDs and BAs) (patients with AUD [7]; along the course of treatment): unexpectedly improved outcomes of other comorbid addictions | participants drinking fewer than 14 units of alcohol per week (patients with AUD [7]; [13]): 11 participants | participants relapsed to drinking more than 14 units of alcohol per week (patients with AUD [7]; [13]): three | participants totally abstinent from alcohol (patients with AUD [7]; [13]): nine | participants drinking in excess of 14 units of alcohol a week (patients with AUD [7]; over 9 months, 75% in the Outcomes Study without MDMA): 21% | CYP3A4 activity (CYP3A4): decrease in CYP3A4 activity | effect size, self-reported improvement (individuals with PTSD; 12 subjects, Oehen 2013): 1.1 | symptom relief, long-term follow-up (individuals with PTSD; chronic, treatment-resistant PTSD, Mithoefer 2010, 2013): statistically and clinically-significant gains in symptom relief with no subjects reporting harm | safety and tolerability (individuals with PTSD; phase 3, severe PTSD, even with comorbidities): safe and well-tolerated | efficacy vs therapy with inactive placebo (individuals with PTSD; phase 3, severe PTSD, Mitchell 2021): highly efficacious | tolerability of MDMA treatment (patients with AUD [8]; AUD post-detox, 187.5 mg each session): well-tolerated by all participants | desire to use illicit ecstasy/illicit MDMA (patients with AUD [8]; following clinical MDMA): No participants reported any desire to use illicit ecstasy/illicit MDMA | psychotic symptoms (patients with AUD [8]; in vivo): No psychotic symptoms were observed | increase in diastolic blood pressure [9]: 14.4-25 mmHg | increase in heart rate [9]: 26-30 bpm | POMS mood disturbance (patients with AUD [10]): no evidence of any mood disturbance; also recorded: sustained a positive mood for seven days | time to peak plasma concentration ([11]; humans, doses 100-125 mg): 2 to 3 h | elimination half-life ([11]; similar results for doses 50-125 mg): 7 to 9 h | serious adverse reaction ([12]; 125 mg MDMA, third of three MDMA-assisted sessions, one individual): increased frequency of ventricular extrasystoles (PVCs) | commonly reported effects ([12]; Phase 1 studies in healthy volunteers): elevation in blood pressure and heart rate, increased anxiety or dysphoria, and dilated pupils

CC(=O)NCCCS(=O)(=O)O [acamprosate]
effect in relapse prevention (alcohol relapse): only minor positive effects in relapse prevention

O=C1CC[C@@]2(O)[C@H]3Cc4ccc(O)c5c4[C@@]2(CCN3CC2CC2)[C@H]1O5 [naltrexone]
effect in relapse prevention (alcohol relapse): only minor positive effects in relapse prevention

Reference: patent publication US20260240805A1, “ENTACTOGEN-ASSISTED THERAPY FOR ALCOHOL USE DISORDER AND ADDICTION-RELATED CONDITIONS AND COMORBIDITIES” (Solvonis Therapeutics Ireland Holdings Limited, priority 2021, published 2026)
